Assay [1] has as its system acetylcholine-induced abdominal constriction in mice. As to the kind of experiment: Mouse Abdominal Irritant Test (MAIT). In kind it is in vivo. The note with it: 300 mg/kg oral, male CD1 mice, % Inhibition=100×(Number of Nonresponders)/(Number of Animals in Group), read-out: Effect @ 300 mg/kg (Antinociceptive Effect in Mouse Abdominal Irritant Test). On the procedure:
Male CD1 mice (weighing from 18-24 g) are used to determine the antinociceptive effects associated with the compositions of the invention. The mice are all dosed orally with the compounds specified, dissolved in distilled water or suspended in 0.5% MethocelTM (hydroxypropyl methylcellulose) in water. The dosing volume is 10 mL/kg.
The procedure used in detecting and comparing the analgesic activity of different classes of analgesic drugs for which there is a good correlation with human efficacy is the prevention of acetylcholine-induced abdominal constriction in mice (H. Collier et al., Br. J. Pharmacol., 32, 295 (1968)).
Mice, intubated with various doses of the compound or vehicle such as distilled water, or distilled water 0.5% Methocel™ (hydroxypropyl methylcellulose) in water, are injected intraperitoneally with a challenge dose of acetylcholine bromide. The acetylcholine is completely dissolved in distilled water at a concentration of […] and injected at the rate of 0.20 mL/20 g. For scoring purposes, an “abdominal constriction” is defined as a contraction of the abdominal musculature accompanied by arching of the back and extension of the limbs. The mice are observed for 10 minutes for the presence or absence of the abdominal constriction response beginning immediately after receiving the acetylcholine dose, administered at a certain time after the oral administration of the test drug or vehicle. Each mouse is used only once.
The percent of inhibition of this response is calculated as follows: % Inhibition=100×(Number of Nonresponders)/(Number of Animals in Group)

The subject of assay [2] is rectal temperature of rats injected with yeast suspension. Put plainly: Antipyretic evaluation in yeast-injected rats. In kind it is in vivo. The protocol:
Groups of 10 male rats are weighed, color-coded, rectal temperatures taken (24 hours±15 minutes prior to dose administration) and recorded. Food is removed but water remains available ad libitum. Each rat is injected subcutaneously into the central dorsal region with 5 ml of a 15% yeast suspension. Twenty-three hours (±15 minutes) after yeast injection, body weights and rectal temperatures are taken and recorded. Twenty-four hours (±15 minutes) after yeast injection, the vehicle and test articles are administered orally. Temperatures are taken and recorded one hour (±5 minutes) following test article or vehicle administration. The mean rectal temperatures for the test article and vehicle control groups are calculated at 23 and 25 hours (±15 minutes) and subjected to an ANOVA followed by a Tukey HSD Multiple Comparison Test (p≦0.05)—Systat, version 9.0.

Structures are written as SMILES.

As for `O=C(Nc1ccc(O)cc1)c1n[nH]c2ccccc12` [1H-Indazole-3-carboxylic acid (4-hydroxy-phenyl)-amide], in assay [1], the responders at 300 mg/kg came to 20%.

For `O=C(Nc1ccc(O)cc1)c1ccc[nH]1` [1H-Pyrrole-2-carboxylic acid (4-hydroxy-phenyl)-amide], the responders at 300 mg/kg in assay [1] was found to be 86.7%.

Turning to `Cc1cc(C(=O)Nc2ccc(O)cc2)n[nH]1` [5-Methyl-1H-pyrazole-3-carboxylic acid (4-hydroxy-phenyl)-amide], the responders at 300 mg/kg in assay [1] was 73.3%.

On to `O=C(Nc1ccc(O)cc1)[C@H]1CCCN1` [(R)-Pyrrolidine-2-carboxylic acid (4-hydroxy-phenyl)-amide], for which, in assay [1], the responders at 300 mg/kg was determined as 20%.

Regarding `O=C(Nc1ccc(O)cc1)[C@@H]1CCCN1` [(S)-Pyrrolidine-2-carboxylic acid (4-hydroxy-phenyl)-amide], the responders at 300 mg/kg in assay [1] was found to be 40%.

Regarding `O=C(CS)Nc1ccc(O)cc1` [N-(4-Hydroxy-phenyl)-2-mercapto-acetamide], the responders at 300 mg/kg in assay [1] came out at 40%.

Turning to `CS(=O)(=O)CC(=O)Nc1ccc(O)cc1` [N-(4-Hydroxy-phenyl)-2-methanesulfonyl-acetamide], the responders at 300 mg/kg in assay [1] stood at 40%.

`CSCC(=O)Nc1ccc(O)cc1` [N-(4-Hydroxy-phenyl)-2-methylsulfanyl-acetamide]: the responders at 300 mg/kg in assay [1] stood at 45%.

Turning to `O=C(Nc1ccc(O)cc1)c1ccccn1` [Pyridine-2-carboxylic acid (4-hydroxy-phenyl)-amide], the responders at 300 mg/kg in assay [1] was 60%. The “decrease in body temperature relative to the vehicle-treated group” value in assay [2] (600 mg/kg oral, ANOVA, Tukey HSD) is listed as “statistically significant (p≦1.05) decrease in body temperature”. In addition, in assay [2] (600 mpk oral, one hour after administration, 24 h after yeast injection), the “Antipyresis deg C. @ 600 mpk” value is recorded as −2.17 deg C.

Values taken from US9018241B2, “Hetero-substituted acetanilide derivatives as analgesic agents” (Janssen Pharmaceutica N.V., priority 2003, dated 2015).
